Experimental data: US20150105252A1, “SUBSTITUTED PYRAZOLES AS HERBICIDES” (E I DU PONT DE NEMOURS AND COMPANY, priority 2013, published 2015)

Columns and labels:
[1] = test system: galium; assay: Test C postemergence; format: in vivo, Galium aparine
How it was run: (§1)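 Herbicidal effect is expressed as percent visual control (0–100) judged against untreated plants 13 to 15 days after treatment in the greenhouse. Preemergence pots contained seeds in a soil–sand blend; postemergence plants, 2–18 cm tall, grew in peat-based planting medium.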

[2] = test system: morningglory; assay: Test C postemergence; format: in vivo, Ipomoea coccinea
How it was run: as §1

[3] = test system: lambsquarters; assay: Test C postemergence; format: in vivo, Chenopodium album
How it was run: as §1

[4] = test system: blackgrass; assay: Test C postemergence; format: in vivo, Alopecurus myosuroides
How it was run: as §1

[5] = test system: pigweed; assay: Test C postemergence; format: in vivo, Amaranthus retroflexus
How it was run: as §1

[6] = test system: velvetleaf; assay: Test C postemergence; format: in vivo, Abutilon theophrasti
How it was run: as §1

[7] = test system: chickweed; assay: Test C postemergence; format: in vivo, Stellaria media
How it was run: as §1

[8] = test system: barnyardgrass; assay: Test C postemergence; format: in vivo, Echinochloa crus-galli
How it was run: as §1

[9] = test system: waterhemp; assay: Test C postemergence; format: in vivo, Amaranthus rudis
How it was run: as §1

[10] = test system: lambsquarters; assay: Test C preemergence; format: in vivo, Chenopodium album
How it was run: as §1

[11] = test system: crabgrass, large; assay: Test C postemergence; format: in vivo, Digitaria sanguinalis
How it was run: as §1

[12] = test system: oat, wild; assay: Test C postemergence; format: in vivo, Avena fatua
How it was run: as §1

[13] = test system: kochia; assay: Test C postemergence; format: in vivo, Kochia scoparia
How it was run: as §1

[14] = test system: wheat; assay: Test C postemergence; format: in vivo, Triticum aestivum
How it was run: as §1

[15] = Postemergence, 31 g ai/ha, visually evaluated after 13 to 15 days
[16] = postemergence, 62 g ai/ha, scale 0 to 100
[17] = postemergence, 250 g ai/ha, scale 0 to 100 (0 no effect, 100 complete control)
[18] = postemergence, 125 g ai/ha, scale 0 to 100, 0 no effect, 100 complete control

CCc1cc(C(=O)NC2CC2)nn1Cc1ccnc(OC(F)F)c1 [Compound 98]
Plant response rating (scale of 0 to 100 where 0 is no effect and 100 is complete control), Galium [1, 15]: 50 | Galium plant response rating [1, 16]: 55 | Plant response rating, Galium [1, 17]: 90 | Plant response rating, Galium [1, 18]: 65 | Plant response rating (scale of 0 to 100 where 0 is no effect and 100 is complete control), Morningglory [2, 15]: 45 | Morningglory plant response rating [2, 16]: 50 | Plant response rating, Morningglory [2, 17]: 90 | Plant response rating, Morningglory [2, 18]: 70 | Plant response rating (scale of 0 to 100 where 0 is no effect and 100 is complete control), Lambsquarters [3, 15]: 60 | Lambsquarters plant response rating [3, 16]: 70 | Plant response rating, Lambsquarters [3, 17]: 95 | Plant response rating, Lambsquarters [3, 18]: 90 | Plant response rating (scale of 0 to 100 where 0 is no effect and 100 is complete control), Blackgrass [4, 15]: 5 | Blackgrass plant response rating [4, 16]: 5 | Plant response rating, Blackgrass [4, 17]: 40 | Plant response rating, Blackgrass [4, 18]: 25 | Plant response rating (scale of 0 to 100 where 0 is no effect and 100 is complete control), Pigweed [5, 15]: 10 | Pigweed plant response rating [5, 16]: 10 | Plant response rating, Pigweed [5, 17]: 90 | Plant response rating, Pigweed [5, 18]: 30 | Plant response rating (scale of 0 to 100 where 0 is no effect and 100 is complete control), Velvetleaf [6, 15]: 15 | Velvetleaf plant response rating [6, 16]: 20 | Plant response rating, Velvetleaf [6, 17]: 50 | Plant response rating, Velvetleaf [6, 18]: 20 | Plant response rating (scale of 0 to 100 where 0 is no effect and 100 is complete control), Chickweed [7, 15]: 100 | Chickweed plant response rating [7, 16]: 100 | Plant response rating, Chickweed [7, 17]: 100 | Plant response rating, Chickweed [7, 18]: 100 | Plant response rating (scale of 0 to 100 where 0 is no effect and 100 is complete control), Barnyardgrass [8, 15]: 0 | Barnyardgrass plant response rating [8, 16]: 0 | Plant response rating, Barnyardgrass [8, 17]: 35 | Plant response rating, Barnyardgrass [8, 18]: 5 | Plant response rating (scale of 0 to 100 where 0 is no effect and 100 is complete control), Waterhemp [9, 15]: 10 | Waterhemp plant response rating [9, 16]: 45 | Plant response rating, Waterhemp [9, 17]: 90 | Plant response rating, Waterhemp [9, 18]: 85 | Plant response rating (scale of 0 to 100), Lambsquarters ([10]; Preemergence, 250 g ai/ha): 100 | Lambsquarters plant response rating ([10]; preemergence, 31 g ai/ha, visual rating, scale 0 to 100 (0 no effect, 100 complete control), 13 to 15 days): 100 | Plant response rating, Lambsquarters ([10]; preemergence, 62 g ai/ha, 13 to 15 days, scale 0 to 100, 0 = no effect, 100 = complete control): 100 | Lambsquarters plant response rating ([10]; preemergence, 125 g ai/ha, scale 0 to 100, 0 is no effect, 100 is complete control): 100 | Plant response rating (scale of 0 to 100 where 0 is no effect and 100 is complete control), Crabgrass, Large [11, 15]: 10 | Crabgrass, Large plant response rating [11, 16]: 15 | Plant response rating, Crabgrass, Large [11, 17]: 50 | Plant response rating, Crabgrass, Large [11, 18]: 45 | Plant response rating (scale of 0 to 100 where 0 is no effect and 100 is complete control), Oat, Wild [12, 15]: 5 | Oat, Wild plant response rating [12, 16]: 5 | Plant response rating, Oat, Wild [12, 17]: 25 | Plant response rating, Oat, Wild [12, 18]: 10 | Plant response rating (scale of 0 to 100 where 0 is no effect and 100 is complete control), Kochia [13, 15]: 40 | Kochia plant response rating [13, 16]: 75 | Plant response rating, Kochia [13, 17]: 85 | Plant response rating, Kochia [13, 18]: 85 | Plant response rating (scale of 0 to 100 where 0 is no effect and 100 is complete control), Wheat [14, 15]: 5 | Wheat plant response rating [14, 16]: 5 | Plant response rating, Wheat [14, 17]: 20 | Plant response rating, Wheat [14, 18]: 5
